Molecules are shown by their SMILES.

The record followed here is US9125913B2, “Bcl-2-selective apoptosis-inducing agents for the treatment of cancer and immune diseases” (AbbVie Inc., priority 2008, dated 2015).

This assay has as its system GST-Bcl-2. Description: TR-FRET binding assay, Bcl-2. The note with it: TR-FRET Ki values. In outline: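 Ki values come from Wang's competitive-binding equation applied to TR-FRET signal (excitation 340/35 nm; emission 520/525 nm F-Bak peptide, 495/510 nm Tb antibody). Protein, probe and antibody incubated with compound 3 h at room temperature; dilution series began at 50 μM as 2× stock in 10% DMSO.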
Background: In TR-FRET formats the signal depends on donor and acceptor labels being close together.
With `CC1(C)CCC(CN2CCN(c3ccc(C(=O)NS(=O)(=O)c4cnc(OCC5CCOCC5)c(Br)c4)c(Oc4ccc5[nH]ccc5c4)c3)CC2)=C(c2ccc(Cl)cc2)C1` [EXAMPLE 329, N-{[5-bromo-6-(tetrahydro-2H-pyran-4-ylmethoxy)pyridin-3-yl]sulfonyl}-4-(4-{[2-(4-chlorophenyl)-4,4-dimethylcyclohex-1-en-1-yl]methyl}piperazin-1-yl)-2-(1H-indol-5-yloxy)benzamide], the “Binding selectivity ratio (Bcl-XL Ki/Bcl-2 Ki)” value is greater than 2319.5. Consider `O=C(NS(=O)(=O)c1ccc(NCC2CCOCC2)c([N+](=O)[O-])c1)c1ccc(N2CCN(Cc3ccccc3-c3ccc(Cl)cc3)CC2)cc1Oc1cccc2ccccc12` [Example 34, 4-{4-[(4′-chloro-1,1′-biphenyl-2-yl)methyl]piperazin-1-yl}-2-(1-naphthyloxy)-N-({3-nitro-4-[(tetrahydro-2H-pyran-4-ylmethyl)amino]phenyl}sulfonyl)benzamide], for which the “Binding selectivity ratio (Bcl-XL Ki/Bcl-2 Ki)” value was 44.3. In the case of `CC1(C)CCC(CN2CCN(c3ccc(C(=O)NS(=O)(=O)c4ccc(NCC5CCOCC5)c(C#N)c4)c(Oc4ccc5[nH]ccc5c4)c3)CC2)=C(c2ccc(Cl)cc2)C1` [EXAMPLE 367, 4-(4-{[2-(4-chlorophenyl)-4,4-dimethylcyclohex-1-en-1-yl]methyl}piperazin-1-yl)-N-({3-cyano-4-[(tetrahydro-2H-pyran-4-ylmethyl)amino]phenyl}sulfonyl)-2-(1H-indol-5-yloxy)benzamide] it was greater than 143.2; in that of `COCCNC(=O)c1ccc(S(=O)(=O)NC(=O)c2ccc(N3CCN(CC4=C(c5ccc(Cl)cc5)CC(C)(C)CC4)CC3)cc2Oc2ccc3[nH]ccc3c2)cc1` [EXAMPLE 332, 4-(4-{[2-(4-chlorophenyl)-4,4-dimethylcyclohex-1-en-1-yl]methyl}piperazin-1-yl)-2-(1H-indol-5-yloxy)-N-[(4-{[(2-methoxyethyl)amino]carbonyl}phenyl)sulfonyl]benzamide], greater than 52.5; in that of `CC1(C)CCC(CN2CCN(c3ccc(C(=O)NS(=O)(=O)c4ccc(NCC5COCCO5)c([N+](=O)[O-])c4)c(Oc4cccc5[nH]cnc45)c3)CC2)=C(c2ccc(Cl)cc2)C1` (centres unmarked) [EXAMPLE 450, 2-(1H-benzimidazol-4-yloxy)-4-(4-{[2-(4-chlorophenyl)-4,4-dimethylcyclohex-1-en-1-yl]methyl}piperazin-1-yl)-N-({4-[(1,4-dioxan-2-ylmethyl)amino]-3-nitrophenyl}sulfonyl)benzamide], 107.3. In the case of `CC1(C)CCC(CN2CCN(c3ccc(C(=O)NS(=O)(=O)c4cnc(OCC5CCOC5)c(Cl)c4)c(Oc4cccc5[nH]ncc45)c3)CC2)=C(c2ccc(Cl)cc2)C1` (centres unmarked) [EXAMPLE 420, 4-(4-{[2-(4-chlorophenyl)-4,4-dimethylcyclohex-1-en-1-yl]methyl}piperazin-1-yl)-N-{[5-chloro-6-(tetrahydrofuran-3-ylmethoxy)pyridin-3-yl]sulfonyl}-2-(1H-indazol-4-yloxy)benzamide] it was 1153; in that of `COCCNc1ccc(S(=O)(=O)NC(=O)c2ccc(N3CCN(CC4=C(c5ccc(Cl)cc5)CC(C)(C)CC4)CC3)cc2Oc2ccc3[nH]ccc3c2)cc1S(=O)(=O)C(F)(F)F` [EXAMPLE 315, 4-(4-{[2-(4-chlorophenyl)-4,4-dimethylcyclohex-1-en-1-yl]methyl}piperazin-1-yl)-2-(1H-indol-5-yloxy)-N-({4-[(2-methoxyethyl)amino]-3-[(trifluoromethyl)sulfonyl]phenyl}sulfonyl)benzamide], greater than 190.7; in that of `CN(C)CCCc1cccc(-c2ccc(Cl)cc2)c1CN1CCN(c2ccc(C(=O)NS(=O)(=O)c3ccc(NCC4CCOCC4)c([N+](=O)[O-])c3)c(Oc3cccc4[nH]ccc34)c2)CC1` [EXAMPLE 196, 4-[4-({4′-chloro-3-[3-(dimethylamino)propyl]-1,1′-biphenyl-2-yl}methyl)piperazin-1-yl]-2-(1H-indol-4-yloxy)-N-({3-nitro-4-[(tetrahydro-2H-pyran-4-ylmethyl)amino]phenyl}sulfonyl)benzamide], greater than 20552.4.
